Assay results: patent US8952024B2, “Herbicidal pyrimidone derivatives” (E I du Pont de Nemours and Company, priority 2009, dated 2015)

Legend:
Assay type in all cases: in vivo
[1] = tested on: rice (Oryza sativa); assay: Test B flooded paddy test; settings: for Plant response rating, Flood, Rice: 250 g ai/ha, flooded paddy test, visual rating on 0 to 100 scale (0 no effect, 100 complete control) after 13 to 15 days; for Plant response rating, Rice: Flood (flooded paddy test), 13 to 15 days; for Rice plant response rating: Flood, 31 g ai/ha, scale 0 to 100 (0 no effect, 100 complete control)
Summary of the method: (§1)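 Each compound is added to standing floodwater (3 cm above soil, maintained) in pots of 2-leaf-stage plants; greenhouse exposure lasts 13–15 d before visual comparison with controls on a 0–100 control scale.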

[2] = tested on: umbrella sedge (Cyperus difformis); assay: Test B flooded paddy test; settings: for Plant response rating, Flood, Sedge, Umbrella: 250 g ai/ha, flooded paddy test, visual rating on 0 to 100 scale (0 no effect, 100 complete control) after 13 to 15 days; for Plant response rating, Sedge, Umbrella: Flood (flooded paddy test), 13 to 15 days; for Sedge, Umbrella plant response rating: Flood, 31 g ai/ha, scale 0 to 100 (0 no effect, 100 complete control)
Summary of the method: as §1

[3] = tested on: barnyardgrass (Echinochloa crus-galli); assay: Test B flooded paddy test; settings: for Plant response rating, Flood, Barnyardgrass: 250 g ai/ha, flooded paddy test, visual rating on 0 to 100 scale (0 no effect, 100 complete control) after 13 to 15 days; for Plant response rating, Barnyardgrass: Flood (flooded paddy test), 13 to 15 days; for Barnyardgrass plant response rating: Flood, 31 g ai/ha, scale 0 to 100 (0 no effect, 100 complete control)
Summary of the method: as §1

[4] = tested on: ducksalad (Heteranthera limosa); assay: Test B flooded paddy test; settings: for Plant response rating, Flood, Ducksalad: 250 g ai/ha, flooded paddy test, visual rating on 0 to 100 scale (0 no effect, 100 complete control) after 13 to 15 days; for Plant response rating, Ducksalad: Flood (flooded paddy test), 13 to 15 days; for Ducksalad plant response rating: Flood, 31 g ai/ha, scale 0 to 100 (0 no effect, 100 complete control)
Summary of the method: as §1

[5] = tested on: large crabgrass (Digitaria sanguinalis); assay: Test A pre-/postemergence plant response; settings: for Crabgrass, Large plant response rating: visual injury, 0 to 100 scale (0 no effect, 100 complete control), approx. ten days
Summary of the method: (§2)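 Plants grown from seed in a loam soil and sand mix received test compounds both as a preemergence soil spray and, at the same time, as a postemergence spray at the one- to two-leaf stage. Injury was judged visually against untreated controls roughly ten days later, 0 meaning no effect and 100 complete control.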

[6] = tested on: wheat (Triticum aestivum); assay: Test A pre-/postemergence plant response; settings: for Wheat plant response rating: visual injury, 0 to 100 scale (0 no effect, 100 complete control), approx. ten days
Summary of the method: as §2

[7] = tested on: pigweed (Amaranthus retroflexus); assay: Test A pre-/postemergence plant response; settings: for Pigweed plant response rating: visual injury, 0 to 100 scale (0 no effect, 100 complete control), approx. ten days
Summary of the method: as §2

[8] = tested on: corn (Zea mays); assay: Test A pre-/postemergence plant response; settings: for Corn plant response rating: visual injury, 0 to 100 scale (0 no effect, 100 complete control), approx. ten days
Summary of the method: as §2

[9] = tested on: barnyardgrass (Echinochloa crus-galli); assay: Test A pre-/postemergence plant response; settings: for Barnyardgrass plant response rating: visual injury, 0 to 100 scale (0 no effect, 100 complete control), approx. ten days
Summary of the method: as §2

[10] = tested on: morningglory (Ipomoea spp.); assay: Test A pre-/postemergence plant response; settings: for Morningglory plant response rating: visual injury, 0 to 100 scale (0 no effect, 100 complete control), approx. ten days
Summary of the method: as §2

[11] = tested on: giant foxtail (Setaria faberii); assay: Test A pre-/postemergence plant response; settings: for Foxtail, Giant plant response rating: visual injury, 0 to 100 scale (0 no effect, 100 complete control), approx. ten days
Summary of the method: as §2

[12] = tested on: velvetleaf (Abutilon theophrasti); assay: Test A pre-/postemergence plant response; settings: for Velvetleaf plant response rating: visual injury, 0 to 100 scale (0 no effect, 100 complete control), approx. ten days
Summary of the method: as §2

[13] = 62 g ai/ha, scale of 0 to 100 where 0 is no effect and 100 is complete control
[14] = 125 g ai/ha, scale 0 to 100, 0 is no effect, 100 is complete control
[15] = Postemergence, 125 g ai/ha, 0 to 100 scale where 0 is no effect and 100 is complete control
[16] = Preemergence, 125 g ai/ha, 0 to 100 scale, 0 = no effect, 100 = complete control
[17] = Preemergence, 500 g ai/ha, 0 to 100 scale, 0 = no effect, 100 = complete control

Cc1cccc(-c2ncc(C(=O)C3=C(O)CCCC3=O)c(=O)n2-c2ccccc2C)c1 [Compound 210]
0: Plant response rating, Rice [1, 13] | Rice plant response rating [1] | Plant response rating, Barnyardgrass [3, 13] | Barnyardgrass plant response rating [3] | Plant response rating, Wheat [6, 15] | Plant response rating, Wheat [6, 16] | Plant response rating, Wheat [6, 17] | Plant response rating, Corn [8, 15] | Corn plant response rating ([8]; Postemergence, 500 g ai/ha) | Plant response rating, Corn [8, 16] | Plant response rating, Corn [8, 17] | Plant response rating, Morningglory [10, 16]
60: Plant response rating, Pigweed [7, 16] | Plant response rating, Velvetleaf [12, 17]
70: Plant response rating, Barnyardgrass [9, 17] | Foxtail, Giant plant response rating ([11]; Postemergence, 500 g ai/ha) | Plant response rating, Velvetleaf [12, 15] | Velvetleaf plant response rating ([12]; Postemergence, 500 g ai/ha)
30: Crabgrass, Large plant response rating ([5]; Postemergence, 500 g ai/ha)
10: Plant response rating, Crabgrass, Large [5, 15] | Plant response rating, Crabgrass, Large [5, 16] | Wheat plant response rating ([6]; Postemergence, 500 g ai/ha) | Plant response rating, Barnyardgrass [9, 16] | Plant response rating, Foxtail, Giant [11, 15]
85: Plant response rating, Ducksalad [4, 13]
20: Plant response rating, Rice [1, 14] | Plant response rating, Barnyardgrass [3, 14] | Plant response rating, Foxtail, Giant [11, 16]
50: Sedge, Umbrella plant response rating [2] | Plant response rating, Crabgrass, Large [5, 17] | Plant response rating, Morningglory [10, 15] | Plant response rating, Morningglory [10, 17]
40: Plant response rating, Flood, Barnyardgrass [3] | Plant response rating, Barnyardgrass [9, 15] | Plant response rating, Velvetleaf [12, 16]
80: Plant response rating, Flood, Sedge, Umbrella [2]
100: Pigweed plant response rating ([7]; Postemergence, 500 g ai/ha) | Plant response rating, Pigweed [7, 17] | Morningglory plant response rating ([10]; Postemergence, 500 g ai/ha)
90: Plant response rating, Flood, Ducksalad [4] | Plant response rating, Ducksalad [4, 14] | Plant response rating, Pigweed [7, 15] | Barnyardgrass plant response rating ([9]; Postemergence, 500 g ai/ha) | Plant response rating, Foxtail, Giant [11, 17]
25: Plant response rating, Flood, Rice [1]
75: Plant response rating, Sedge, Umbrella [2, 13] | Plant response rating, Sedge, Umbrella [2, 14] | Ducksalad plant response rating [4]

C=CCCn1c(-c2ccccc2)ncc(C(=O)C2=C(O)CCCC2=O)c1=O [Compound 214]
90: Crabgrass, Large plant response rating ([5]; Postemergence, 500 g ai/ha) | Plant response rating, Crabgrass, Large [5, 17] | Plant response rating, Pigweed [7, 15] | Plant response rating, Pigweed [7, 17] | Barnyardgrass plant response rating ([9]; Postemergence, 500 g ai/ha) | Foxtail, Giant plant response rating ([11]; Postemergence, 500 g ai/ha) | Plant response rating, Velvetleaf [12, 16]
20: Plant response rating, Flood, Barnyardgrass [3] | Wheat plant response rating ([6]; Postemergence, 500 g ai/ha)
70: Plant response rating, Pigweed [7, 16] | Plant response rating, Foxtail, Giant [11, 17]
60: Plant response rating, Barnyardgrass [9, 17]
95: Plant response rating, Flood, Ducksalad [4]
10: Plant response rating, Barnyardgrass [9, 16]
50: Plant response rating, Foxtail, Giant [11, 15]
85: Plant response rating, Flood, Sedge, Umbrella [2]
30: Plant response rating, Crabgrass, Large [5, 16] | Plant response rating, Wheat [6, 17] | Corn plant response rating ([8]; Postemergence, 500 g ai/ha) | Plant response rating, Foxtail, Giant [11, 16]
80: Plant response rating, Crabgrass, Large [5, 15] | Plant response rating, Barnyardgrass [9, 15] | Plant response rating, Morningglory [10, 15] | Plant response rating, Morningglory [10, 17]
15: Plant response rating, Flood, Rice [1]
100: Pigweed plant response rating ([7]; Postemergence, 500 g ai/ha) | Morningglory plant response rating ([10]; Postemergence, 500 g ai/ha) | Plant response rating, Velvetleaf [12, 15] | Velvetleaf plant response rating ([12]; Postemergence, 500 g ai/ha) | Plant response rating, Velvetleaf [12, 17]
0: Plant response rating, Rice [1, 13] | Plant response rating, Sedge, Umbrella [2, 13] | Plant response rating, Barnyardgrass [3, 13] | Plant response rating, Ducksalad [4, 13] | Plant response rating, Wheat [6, 15] | Plant response rating, Wheat [6, 16] | Plant response rating, Corn [8, 15] | Plant response rating, Corn [8, 16] | Plant response rating, Corn [8, 17] | Plant response rating, Morningglory [10, 16]

C#Cc1ccc(-c2ncc(C(=O)C3=C(O)CCCC3=O)c(=O)n2C2CCCCC2)cc1 [Compound 216]
40: Plant response rating, Crabgrass, Large [5, 15]
100: Plant response rating, Flood, Sedge, Umbrella [2] | Velvetleaf plant response rating ([12]; Postemergence, 500 g ai/ha)
0: Plant response rating, Flood, Rice [1] | Plant response rating, Rice [1, 13] | Plant response rating, Rice [1, 14] | Rice plant response rating [1] | Sedge, Umbrella plant response rating [2] | Plant response rating, Flood, Barnyardgrass [3] | Plant response rating, Barnyardgrass [3, 13] | Plant response rating, Barnyardgrass [3, 14] | Barnyardgrass plant response rating [3] | Plant response rating, Crabgrass, Large [5, 16] | Plant response rating, Wheat [6, 16] | Plant response rating, Wheat [6, 17] | Plant response rating, Pigweed [7, 16] | Plant response rating, Corn [8, 15] | Corn plant response rating ([8]; Postemergence, 500 g ai/ha) | Plant response rating, Corn [8, 16] | Plant response rating, Barnyardgrass [9, 16] | Plant response rating, Morningglory [10, 16] | Plant response rating, Foxtail, Giant [11, 16] | Plant response rating, Velvetleaf [12, 16]
20: Plant response rating, Wheat [6, 15] | Plant response rating, Corn [8, 17] | Plant response rating, Barnyardgrass [9, 17]
10: Plant response rating, Barnyardgrass [9, 15]
80: Plant response rating, Sedge, Umbrella [2, 14] | Crabgrass, Large plant response rating ([5]; Postemergence, 500 g ai/ha) | Plant response rating, Crabgrass, Large [5, 17]
60: Plant response rating, Foxtail, Giant [11, 17]
70: Plant response rating, Morningglory [10, 15] | Foxtail, Giant plant response rating ([11]; Postemergence, 500 g ai/ha)
90: Plant response rating, Ducksalad [4, 13] | Plant response rating, Ducksalad [4, 14] | Plant response rating, Pigweed [7, 15] | Pigweed plant response rating ([7]; Postemergence, 500 g ai/ha) | Barnyardgrass plant response rating ([9]; Postemergence, 500 g ai/ha) | Morningglory plant response rating ([10]; Postemergence, 500 g ai/ha) | Plant response rating, Velvetleaf [12, 15]
50: Ducksalad plant response rating [4] | Plant response rating, Pigweed [7, 17]
95: Plant response rating, Flood, Ducksalad [4]
65: Plant response rating, Sedge, Umbrella [2, 13]
30: Wheat plant response rating ([6]; Postemergence, 500 g ai/ha) | Plant response rating, Morningglory [10, 17] | Plant response rating, Foxtail, Giant [11, 15] | Plant response rating, Velvetleaf [12, 17]

CCCn1c(-c2cccs2)ncc(C(=O)c2cnn(CC)c2O)c1=O [Compound 221]
40: Plant response rating, Pigweed [7, 15]
60: Plant response rating, Sedge, Umbrella [2, 13] | Plant response rating, Pigweed [7, 17]
15: Plant response rating, Flood, Rice [1]
0: Plant response rating, Rice [1, 13] | Plant response rating, Rice [1, 14] | Rice plant response rating [1] | Sedge, Umbrella plant response rating [2] | Plant response rating, Barnyardgrass [3, 13] | Plant response rating, Barnyardgrass [3, 14] | Barnyardgrass plant response rating [3] | Plant response rating, Crabgrass, Large [5, 16] | Plant response rating, Wheat [6, 15] | Wheat plant response rating ([6]; Postemergence, 500 g ai/ha) | Plant response rating, Wheat [6, 16] | Plant response rating, Wheat [6, 17] | Plant response rating, Pigweed [7, 16] | Plant response rating, Corn [8, 15] | Plant response rating, Corn [8, 16] | Plant response rating, Corn [8, 17] | Plant response rating, Barnyardgrass [9, 16] | Plant response rating, Barnyardgrass [9, 17] | Plant response rating, Morningglory [10, 16] | Plant response rating, Morningglory [10, 17] | Plant response rating, Foxtail, Giant [11, 15] | Plant response rating, Foxtail, Giant [11, 16]
65: Plant response rating, Ducksalad [4, 13]
30: Plant response rating, Velvetleaf [12, 17]
20: Plant response rating, Flood, Barnyardgrass [3] | Ducksalad plant response rating [4] | Crabgrass, Large plant response rating ([5]; Postemergence, 500 g ai/ha) | Corn plant response rating ([8]; Postemergence, 500 g ai/ha) | Barnyardgrass plant response rating ([9]; Postemergence, 500 g ai/ha) | Morningglory plant response rating ([10]; Postemergence, 500 g ai/ha) | Plant response rating, Velvetleaf [12, 16]
80: Plant response rating, Velvetleaf [12, 15] | Velvetleaf plant response rating ([12]; Postemergence, 500 g ai/ha)
10: Plant response rating, Crabgrass, Large [5, 15] | Plant response rating, Crabgrass, Large [5, 17] | Plant response rating, Barnyardgrass [9, 15] | Plant response rating, Morningglory [10, 15] | Foxtail, Giant plant response rating ([11]; Postemergence, 500 g ai/ha) | Plant response rating, Foxtail, Giant [11, 17]
70: Plant response rating, Flood, Ducksalad [4] | Plant response rating, Ducksalad [4, 14] | Pigweed plant response rating ([7]; Postemergence, 500 g ai/ha)
75: Plant response rating, Flood, Sedge, Umbrella [2] | Plant response rating, Sedge, Umbrella [2, 14]
